Laboratory results reported in ChEMBL document CHEMBL1154936, “Synthesis, SAR and intramolecular hydrogen bonding pattern of 1,3,5-trisubstituted 4,5-dihydropyrazoles as potent cannabinoid CB(1) receptor antagonists” (Bioorg Med Chem Lett, 2010).

Columns and labels:
Cannabinoid receptor 1 [1] = target: T1, Cannabinoid receptor 1 (Homo sapiens, UniProt P21554); assay: Displacement of [3H]CP-55940 from human cannabinoid CB1 receptor expressed in CHO cells; type: cell-based
Rattus norvegicus = assay: Inhibition of CP-55940-induced hypotension in po dosed rat; type: functional; conditions: read-out: ID50 (the source's name)
Cannabinoid receptor 2 = Cannabinoid receptor 2 (Homo sapiens, UniProt P34972); assay: Displacement of [3H]CP-55940 from human cannabinoid CB2 receptor expressed in CHO cells; type: cell-based
Cannabinoid receptor 1 [2] = target: T1, Cannabinoid receptor 1; assay: Antagonist activity at human cannabinoid CB1 receptor expressed in CHO cells assessed as inhibition of CP-55940-induced [3H]arachidonic acid release; type: functional, cell-based; conditions: read-out: pA2 (converted)

Cannabinoid receptor 2, sequence (P34972 whole entry): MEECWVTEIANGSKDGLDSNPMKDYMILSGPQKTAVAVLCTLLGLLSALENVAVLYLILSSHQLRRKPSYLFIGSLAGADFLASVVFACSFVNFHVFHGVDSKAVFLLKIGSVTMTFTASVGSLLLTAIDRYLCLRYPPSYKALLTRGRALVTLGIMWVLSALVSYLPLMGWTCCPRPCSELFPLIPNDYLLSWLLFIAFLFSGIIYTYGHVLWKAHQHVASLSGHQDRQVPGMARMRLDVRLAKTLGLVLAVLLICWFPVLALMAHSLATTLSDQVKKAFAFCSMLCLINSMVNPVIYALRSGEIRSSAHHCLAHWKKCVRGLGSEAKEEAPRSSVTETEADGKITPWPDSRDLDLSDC
T1 sequence (P21554 whole entry): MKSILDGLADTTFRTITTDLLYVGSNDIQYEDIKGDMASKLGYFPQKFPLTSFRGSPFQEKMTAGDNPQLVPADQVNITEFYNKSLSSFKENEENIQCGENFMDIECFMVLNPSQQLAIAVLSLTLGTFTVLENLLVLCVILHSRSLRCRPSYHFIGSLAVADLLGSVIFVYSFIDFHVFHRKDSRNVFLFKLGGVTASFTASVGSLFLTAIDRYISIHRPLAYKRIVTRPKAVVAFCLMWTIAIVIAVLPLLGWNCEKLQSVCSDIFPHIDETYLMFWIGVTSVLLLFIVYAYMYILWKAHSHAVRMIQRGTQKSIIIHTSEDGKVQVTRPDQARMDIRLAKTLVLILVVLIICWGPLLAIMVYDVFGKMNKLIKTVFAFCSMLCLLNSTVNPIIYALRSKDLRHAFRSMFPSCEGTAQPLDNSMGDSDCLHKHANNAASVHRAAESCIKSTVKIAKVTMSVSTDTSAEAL

SMILES	Ki (Cannabinoid receptor 1 [1])	ED50 (Rattus norvegicus)	Ki (Cannabinoid receptor 2)	Kb (Cannabinoid receptor 1 [2])
CN/C(=N\S(=O)(=O)N1CCC(F)(F)CC1)C1=NN(c2ccc(Cl)cc2)[C@H](c2ccccc2)C1	280 nM	> 30 mg/kg	> 1000 nM	> 200 nM
CNC(=NS(=O)(=O)N1CCC(F)CC1)N1CC(c2ccccc2)C(c2ccc(Cl)cc2)=N1 (stereo not given)	7.5 nM	> 30 mg/kg	> 1000 nM	1 nM
CN/C(=N\S(=O)(=O)c1ccc(F)cc1)C1=NN(c2ccc(Cl)cc2)C(c2ccccc2)C1 (stereo not given)	21.7 nM	30 mg/kg	> 1000 nM	10 nM
CNC(=NS(=O)(=O)N1CCC(C(F)(F)F)CC1)C1=NN(c2ccc(Cl)cc2)[C@@H](c2ccccc2)C1	2 nM	–	584 nM	–
CNC(=NS(=O)(=O)N1CCC(C(F)(F)F)CC1)C1=NN(c2ccc(Cl)cc2)[C@H](c2ccccc2)C1	58 nM	–	> 1000 nM	6.31 nM
CNC(=NS(=O)(=O)N1CCC(C(F)(F)F)CC1)N1C[C@H](c2ccccc2)C(c2ccc(Cl)cc2)=N1	4.7 nM	2 mg/kg	305 nM	0.251 nM
CNC(=NS(=O)(=O)N1CCC(C(F)(F)F)CC1)N1C[C@@H](c2ccccc2)C(c2ccc(Cl)cc2)=N1	140 nM	> 30 mg/kg	> 1000 nM	50.1 nM
CNC(=NS(=O)(=O)N1CCC(F)(F)CC1)N1C[C@H](c2ccccc2)C(c2ccc(Cl)cc2)=N1	42 nM	6 mg/kg	> 1000 nM	1 nM
CNC(=NS(=O)(=O)N1CCC(F)(F)CC1)N1C[C@@H](c2ccccc2)C(c2ccc(Cl)cc2)=N1	463 nM	> 30 mg/kg	> 1000 nM	398 nM
CN/C(=N\S(=O)(=O)N1CCC(C(F)(F)F)CC1)N1CC(c2ccccc2)C(c2ccc(Cl)cc2)=N1 (stereo not given)	14.5 nM	–	> 1000 nM	0.398 nM
CN/C(=N\S(=O)(=O)N1CCCCC1)N1C[C@H](c2ccccc2)C(c2ccc(Cl)cc2)=N1	–	8 mg/kg	–	–
CN/C(=N\S(=O)(=O)c1ccc(Cl)cc1)C1=NN(c2ccc(Cl)cc2)C(c2ccccc2)C1 (stereo not given)	84 nM	> 30 mg/kg	> 1000 nM	3.98 nM
CN/C(=N\S(=O)(=O)c1cccc(Cl)c1)C1=NN(c2ccc(Cl)cc2Cl)C(c2ccccc2)C1 (stereo not given)	53 nM	> 30 mg/kg	330 nM	5.01 nM
CN/C(=N\S(=O)(=O)c1ccc(Cl)cc1)C1=NN(c2ccc(Cl)cc2Cl)C(c2ccccc2)C1 (stereo not given)	37 nM	> 30 mg/kg	248 nM	1 nM
CN/C(=N\S(=O)(=O)c1ccc(C(F)(F)F)cc1)C1=NN(c2ccc(Cl)cc2Cl)C(c2ccccc2)C1 (stereo not given)	11.3 nM	> 30 mg/kg	179 nM	2.51 nM
CNC(=NS(=O)(=O)N1CCCCC1)C1=NN(c2ccc(Cl)cc2)C(c2ccccc2)C1 (stereo not given)	141 nM	> 30 mg/kg	1090 nM	12.6 nM
CN/C(=N\S(=O)(=O)N1CCC(F)CC1)C1=NN(c2ccc(Cl)cc2)C(c2ccccc2)C1 (stereo not given)	55 nM	> 30 mg/kg	> 1000 nM	3.98 nM
CN/C(=N\S(=O)(=O)N1CCC(C(F)(F)F)CC1)C1=NN(c2ccc(Cl)cc2)C(c2ccccc2)C1 (stereo not given)	7.6 nM	–	606 nM	0.398 nM
CN=C(NS(=O)(=O)N1CCC(F)(F)CC1)C1=NN(c2ccc(Cl)cc2)C(c2ccccc2)C1 (stereo not given)	38.8 nM	9 mg/kg	> 1000 nM	0.794 nM
CN/C(=N\S(=O)(=O)N1CCC(F)(F)CC1)C1=NN(c2ccc(Cl)cc2)[C@@H](c2ccccc2)C1	9.2 nM	5 mg/kg	> 1000 nM	1.58 nM
CN/C(=N\S(=O)(=O)N1CCC(F)(F)CC1)N1CC(c2ccccc2)C(c2ccc(Cl)cc2)=N1 (stereo not given)	–	23 mg/kg	–	–
CN/C(=N\S(=O)(=O)c1ccc(Cl)cc1)N1C[C@H](c2ccccc2)C(c2ccc(Cl)cc2)=N1 [IBIPINABANT]	–	5.5 mg/kg	–	–
CN/C(=N\S(=O)(=O)c1ccc(Cl)cc1)N1CC(c2ccccc2)C(c2ccc(Cl)cc2)=N1 (stereo not drawn) [RAC-IBIPINABANT]	–	15 mg/kg	–	–
